Assay results from PMC10559868, “Spectroscopic study and molecular simulation: Bovine serum albumin binding with anticancer Pt complex of amyl dithiocarbamate ligand” (Heliyon, 2023).

Biological target: T1, Bovine serum albumin (BSA) (Bos taurus, UniProt P02769)
T1 construct: gene ALB
Details: read-out: Kb M^-1))

T1 sequence (P02769 25-607): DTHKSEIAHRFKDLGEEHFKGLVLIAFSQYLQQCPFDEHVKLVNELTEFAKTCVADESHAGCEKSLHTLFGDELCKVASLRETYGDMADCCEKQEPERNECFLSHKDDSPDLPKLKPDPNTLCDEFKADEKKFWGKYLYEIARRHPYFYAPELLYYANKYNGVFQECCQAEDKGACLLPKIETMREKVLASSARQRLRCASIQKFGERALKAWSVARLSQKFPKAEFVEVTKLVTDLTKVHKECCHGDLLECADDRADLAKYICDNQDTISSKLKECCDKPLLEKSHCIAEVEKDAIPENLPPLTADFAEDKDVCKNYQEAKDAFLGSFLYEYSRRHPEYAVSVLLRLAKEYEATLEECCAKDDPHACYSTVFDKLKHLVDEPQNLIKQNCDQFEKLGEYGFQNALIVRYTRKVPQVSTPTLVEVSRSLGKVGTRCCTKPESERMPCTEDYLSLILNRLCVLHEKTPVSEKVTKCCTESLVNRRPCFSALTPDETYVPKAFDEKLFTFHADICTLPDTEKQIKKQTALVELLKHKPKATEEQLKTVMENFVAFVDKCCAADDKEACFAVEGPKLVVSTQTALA

## CCCCCNC1=[S+][Pt-2]2([S]1)[n+]1ccccc1-c1cccc[n+]12 [[Pt(bpy)(amyl.dtc)]NO3]
  Kd: 148 µM
